From ChEMBL document CHEMBL4265909, “Synthesis and biological evaluation of novel 5,6-dihydropyrimido[4,5-f]quinazoline derivatives as potent CDK2 inhibitors” (Bioorg Med Chem Lett, 2018)

How the values were obtained:
HCT-116 = assay: Antiproliferative activity against human HCT116 cells after 24 hrs by MTT assay; format: functional, cell-based; conditions: HCT-116, 24 h
CDK2/Cyclin A2 = CDK2/Cyclin A2 (Homo sapiens, UniProt P24941); assay: Inhibition of full-length human CDK2/N-terminal GST-tagged Cyclin A2 (1 to 432 residues) expressed in Baculovirus expression system using FAM-P8/P18 as substrate measured after 40 mins
MCF7 = assay: Antiproliferative activity against human MCF7 cells after 24 hrs by MTT assay; format: functional, cell-based; conditions: MCF7, 24 h
[1] = target: Cyclin-dependent kinase 5 (Homo sapiens, UniProt Q00535); assay: Inhibition of CDK5 (unknown origin)
Sequence of Cyclin-dependent kinase 5 (Q00535 whole entry): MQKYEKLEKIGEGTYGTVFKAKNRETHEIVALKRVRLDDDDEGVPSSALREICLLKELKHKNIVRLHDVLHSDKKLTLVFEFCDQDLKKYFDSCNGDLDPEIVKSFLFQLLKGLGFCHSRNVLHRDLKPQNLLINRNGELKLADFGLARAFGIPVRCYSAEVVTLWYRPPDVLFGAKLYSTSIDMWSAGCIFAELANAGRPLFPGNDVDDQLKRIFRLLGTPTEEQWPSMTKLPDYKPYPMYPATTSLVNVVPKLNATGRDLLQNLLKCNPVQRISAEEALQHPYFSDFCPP

[2] = target: Cyclin-dependent kinase 4 (Homo sapiens, UniProt P11802); assay: Inhibition of CDK4 (unknown origin)
Sequence of Cyclin-dependent kinase 4 (P11802 whole entry): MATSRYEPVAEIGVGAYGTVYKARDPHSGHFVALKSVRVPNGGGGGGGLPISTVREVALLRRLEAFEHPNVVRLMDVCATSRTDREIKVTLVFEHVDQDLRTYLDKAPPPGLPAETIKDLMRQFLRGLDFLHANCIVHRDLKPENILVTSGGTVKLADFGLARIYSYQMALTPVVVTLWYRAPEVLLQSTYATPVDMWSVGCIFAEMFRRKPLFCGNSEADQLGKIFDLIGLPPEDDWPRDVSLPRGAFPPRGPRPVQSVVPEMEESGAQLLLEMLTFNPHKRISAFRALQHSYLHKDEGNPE

[3] = target: Cyclin-dependent kinase 1 (Homo sapiens, UniProt P06493); assay: Inhibition of CDK1 (unknown origin)
Sequence of Cyclin-dependent kinase 1 (P06493 whole entry): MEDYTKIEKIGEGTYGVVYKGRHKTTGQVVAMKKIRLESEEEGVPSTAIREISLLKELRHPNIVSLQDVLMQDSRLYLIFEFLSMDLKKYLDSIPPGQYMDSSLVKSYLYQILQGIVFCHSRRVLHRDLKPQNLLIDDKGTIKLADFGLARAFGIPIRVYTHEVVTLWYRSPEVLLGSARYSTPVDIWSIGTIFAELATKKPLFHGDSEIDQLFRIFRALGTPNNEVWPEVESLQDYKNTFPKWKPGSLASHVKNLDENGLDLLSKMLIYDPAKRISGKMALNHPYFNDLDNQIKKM

[4] = target: Cyclin-dependent kinase 6 (Homo sapiens, UniProt Q00534); assay: Inhibition of CDK6 (unknown origin)
Sequence of Cyclin-dependent kinase 6 (Q00534 whole entry): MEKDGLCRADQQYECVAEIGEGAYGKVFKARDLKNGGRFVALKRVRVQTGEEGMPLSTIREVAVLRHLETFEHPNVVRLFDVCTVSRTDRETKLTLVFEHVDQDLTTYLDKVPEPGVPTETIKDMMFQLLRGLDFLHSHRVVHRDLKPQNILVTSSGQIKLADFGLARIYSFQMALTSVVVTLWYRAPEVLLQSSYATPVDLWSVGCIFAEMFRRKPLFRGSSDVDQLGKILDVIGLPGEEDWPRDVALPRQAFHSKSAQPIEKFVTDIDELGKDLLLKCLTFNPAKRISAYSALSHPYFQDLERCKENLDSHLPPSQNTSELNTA

[5] = target: Cyclin-dependent kinase 7 (Homo sapiens, UniProt P50613); assay: Inhibition of CDK7 (unknown origin)
Sequence of Cyclin-dependent kinase 7 (P50613 whole entry): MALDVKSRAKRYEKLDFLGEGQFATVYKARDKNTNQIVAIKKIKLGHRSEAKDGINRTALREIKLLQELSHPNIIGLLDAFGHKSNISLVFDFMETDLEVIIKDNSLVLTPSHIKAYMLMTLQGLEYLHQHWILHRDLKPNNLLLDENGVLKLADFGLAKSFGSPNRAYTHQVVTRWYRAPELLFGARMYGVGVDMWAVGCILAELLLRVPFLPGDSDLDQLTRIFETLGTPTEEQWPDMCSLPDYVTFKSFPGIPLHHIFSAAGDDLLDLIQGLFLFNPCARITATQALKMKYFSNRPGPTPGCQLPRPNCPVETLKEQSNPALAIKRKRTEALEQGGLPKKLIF

| Structure (SMILES) | IC50 (HCT-116) [µM] | IC50 (CDK2/Cyclin A2) [µM] | IC50 (MCF7) [µM] | IC50 [1] [µM] | IC50 [2] [µM] | IC50 [3] [µM] | IC50 [4] [µM] | IC50 [5] [µM] |
| --- | --- | --- | --- | --- | --- | --- | --- | --- |
| CSc1ncc2c(n1)CCc1cnc(Nc3ccc(C(N)=O)cc3)nc1-2 | 0.9 | 0.11 | 1.3 |  |  |  |  |  |
| CSc1ncc2c(n1)CCc1cnc(Nc3ccc(C(=O)NC4CCCC4)cc3)nc1-2 | 9.1 | 1.26 | 6.5 |  |  |  |  |  |
| CSc1ncc2c(n1)CCc1cnc(Nc3ccccc3)nc1-2 | 12.7 | 0.41 | 15.6 |  |  |  |  |  |
| Clc1ccc(Nc2ncc3c(n2)-c2cnc(Nc4ccccc4)nc2CC3)cc1 | 26.3 | 2.03 | 23.5 |  |  |  |  |  |
| CCOC(=O)c1ccc(Nc2ncc3c(n2)-c2cnc(SC)nc2CC3)cc1 | 14.3 | 1.25 | 25.4 |  |  |  |  |  |
| Nc1ncc2c(n1)-c1cnc(Nc3ccccc3)nc1CC2 | 25.3 | 1.7 | 27.6 |  |  |  |  |  |
| CSc1ncc2c(n1)CCc1cnc(Nc3ccc(F)cc3)nc1-2 | 7.9 | 0.35 | 8.4 |  |  |  |  |  |
| CN1CCN(C(=O)c2ccc(Nc3ncc4c(n3)CCc3cnc(N)nc3-4)cc2)CC1 | > 30 | 5.9 | > 30 |  |  |  |  |  |
| CSc1ncc2c(n1)CCc1cnc(Nc3ccc(N)cc3)nc1-2 | 1.6 | 0.16 | 1.4 |  |  |  |  |  |
| Nc1ncc2c(n1)-c1cnc(Nc3ccc(C(=O)N4CCOCC4)cc3)nc1CC2 | > 30 |  | > 30 |  |  |  |  |  |
| CSc1ncc2c(n1)CCc1cnc(Nc3ccc(C(=O)N4CCNCC4)cc3)nc1-2 | 1.3 | 0.16 | 1.5 |  |  |  |  |  |
| CCOC(=O)c1ccc(Nc2ncc3c(n2)CCc2cnc(N)nc2-3)cc1 | > 30 |  | > 30 |  |  |  |  |  |
| CSc1ncc2c(n1)CCc1cnc(Nc3ccc(C(=O)N(C)C)cc3)nc1-2 | 5.3 | 0.53 | 3.7 |  |  |  |  |  |
| CSc1ncc2c(n1)CCc1cnc(Nc3ccc(C(=O)O)cc3)nc1-2 | 12.8 | 0.98 | 17.8 |  |  |  |  |  |
| CSc1ncc2c(n1)CCc1cnc(Nc3ccc(C(=O)N4CCN(C(=O)OC(C)(C)C)CC4)cc3)nc1-2 | 17.2 | 3.7 | 19.4 |  |  |  |  |  |
| CN(C)CCN(C)C(=O)c1ccc(Nc2ncc3c(n2)CCc2cnc(N)nc2-3)cc1 | > 30 | 3.2 | > 30 |  |  |  |  |  |
| CSc1ncc2c(n1)CCc1cnc(Nc3ccc(Cl)cc3)nc1-2 | 8.3 | 0.38 | 7 |  |  |  |  |  |
| Nc1ncc2c(n1)-c1cnc(Nc3ccc(Cl)cc3)nc1CC2 | > 30 | 1.85 | > 30 |  |  |  |  |  |
| CSc1ncc2c(n1)CCc1cnc(Nc3ccc(C(=O)N4CCOCC4)cc3)nc1-2 | 3.2 | 0.19 | 2.1 |  |  |  |  |  |
| CSc1ncc2c(n1)CCc1cnc(Nc3ccc(C(=O)N4CCN(C)CC4)cc3)nc1-2 | 3.8 | 0.18 | 2.5 |  |  |  |  |  |
| c1ccc(Nc2ncc3c(n2)CCc2cnc(Nc4ccccc4)nc2-3)cc1 | 18.1 | 1.54 | 20.6 |  |  |  |  |  |
| CSc1ncc2c(n1)CCc1cnc(Nc3ccc(C(=O)N(C)CCN(C)C)cc3)nc1-2 | 1.4 | 0.09 | 1.1 | 0.68 | > 5 | 1.25 | > 5 | 3.6 |
| CC(C)(C)c1cnc(CSc2cnc(NC(=O)C3CCNCC3)s2)o1 [BMS-387032] | 0.7 |  | 1 |  |  |  |  |  |
